Target: Cathepsin S (Homo sapiens, UniProt P25774)
Test: Inhibition of recombinant human cathepsin S

Sequence of Cathepsin S (P25774 whole entry): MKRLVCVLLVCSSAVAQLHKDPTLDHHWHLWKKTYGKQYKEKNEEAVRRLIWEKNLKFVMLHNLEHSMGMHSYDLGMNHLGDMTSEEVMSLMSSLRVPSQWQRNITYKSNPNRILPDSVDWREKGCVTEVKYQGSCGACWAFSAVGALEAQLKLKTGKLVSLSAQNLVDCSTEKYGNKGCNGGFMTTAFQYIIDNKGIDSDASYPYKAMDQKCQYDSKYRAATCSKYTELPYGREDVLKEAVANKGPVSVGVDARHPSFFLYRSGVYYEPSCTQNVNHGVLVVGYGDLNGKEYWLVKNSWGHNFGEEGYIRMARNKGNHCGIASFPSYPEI

Work on `O=C(N[C@@H](Cc1ccccc1)C(=O)N[C@@H]1C(=O)N[C@@H]1Oc1ccccc1)OCc1ccccc1` [[(S)-1-((3S,4R)-2-Oxo-4-phenoxy-azetidin-3-ylcarbamoyl)-2-phenyl-ethyl]-carbamic acid benzyl ester] yielded an IC50 of less than 0.1 nM.

Source: BindingDB's records for doi:10.1016/s0960-894x(02)00831-4 (Currently Naeja Pharmaceutical, 2002)
